A short description of this series: Pharmacokinetic analysis of AMXT 1501 salt forms, single oral tablet dose. To be noted: for Cmax / Tmax / half-life / AUC(0-t): beagle, dog, plasma, po. The series is classed as in vivo, beagle dogs. An excerpt: Following dose administration all the animals had serial blood collections. Table 18 provides pharmacokinetic data obtained using the various salt forms of AMXT 1501 following single PO dosing to dogs. In Table 18, Group 1 received the free base form of AMXT 1501, Group 2 received the dicholate salt of AMXT 1501, Group 3 received the phosphate salt form of AMXT 1501, and Group 4 received the dicaprate salt form of AMXT 1501. […] In Table 18, SD refers to standard deviation and CV % refers to coefficient of variability.

Setting [1] is: single PO dose 16.0 mg/kg (2 x 80 mg tablets), plasma AMXT 1501, 16 mg/kg.
Setting [2] is: single PO dose 16.0 mg/kg, plasma AMXT 1501, 16 mg/kg.
Where [3] appears, read: single PO dose 16.0 mg/kg, t=24 hours, plasma AMXT 1501, 16 mg/kg.

Where two headings read alike, the source gives them in different places.

With `CCCCCCCCCCCCCCCC(=O)NCCCC[C@@H](N)C(=O)NCCCNCCCCNCCCN` [AMXT 1501 dicaprate], the Cmax (in general, the maximum level reached in the sampled fluid or tissue) (16 mg/kg, single PO dose 16.0 mg/kg (2 x 80 mg tablets), plasma AMXT 1501, read-out: Cmax Mean) turned out to be 276 ng/mL and the Cmax (16 mg/kg, single PO dose 16.0 mg/kg (2 x 80 mg tablets), plasma AMXT 1501, read-out: Cmax Median) came to 278 ng/mL. The Tmax (usually the time at which the peak concentration occurs) by setting is: (16 mg/kg, single PO dose 16.0 mg/kg (2 x 80 mg tablets), plasma AMXT 1501, read-out: Tmax Mean) 6 h; (16 mg/kg, single PO dose 16.0 mg/kg (2 x 80 mg tablets), plasma AMXT 1501, read-out: Tmax Median) 6 h. Also, the half-life is, setting by setting: (16 mg/kg, single PO dose 16.0 mg/kg, plasma AMXT 1501, read-out: t1/2 Mean (converted)) 14 h; (16 mg/kg, single PO dose 16.0 mg/kg, plasma AMXT 1501, read-out: t1/2 Median (converted)) 13.4 h. The AUC(0-t) (16 mg/kg, single PO dose 16.0 mg/kg, t=24 hours, plasma AMXT 1501, read-out: AUC0-t Mean) was 6580 ng·h/mL and the AUC(0-t) (16 mg/kg, single PO dose 16.0 mg/kg, t=24 hours, plasma AMXT 1501, read-out: AUC0-t Median) came to 6370 ng·h/mL. Moreover, the “Cmax Max.” value under setting [1] was found to be 349 ng/mL. The “Cmax Min.” value under setting [1] is on record as 201 ng/mL. In addition, under setting [2], the “t1/2 Max.” value turned out to be 16.2 h. Also, the “t1/2 Min.” value under setting [2] was 12.4 h. The “AUC0-t Max.” value under setting [3] amounted to 8640 ng·h/mL. Also, the “AUC0-t Min.” value under setting [3] was 4710 ng·h/mL. The “inter-animal consistency of plasma AMXT 1501 levels” value (single oral delivery, FIGS. 5A-5D) is listed as “much more consistent inter-animal blood levels”.

For the origin of these results see US12364709B2, “Bioavailable poly amines” (AMINEX THERAPEUTICS, INC., priority 2016, dated 2025).
